What was measured:
Type in all cases: in vivo, human
subjects [1] = assay: Stimulant effect: scores in video game of skill Pilot Wing before and after consuming composition; settings: five subjects, crossover over three days, Formulation I vs 180 mg caffeine vs placebo
Method: Five subjects were tested over a period of three days. […] Both prior to and after consuming the composition, each subject played a video game of skill called Pilot Wing™ made by Nintendo™.

subjects [2] = assay: Standard short-term memory test (repeating a read series of numbers backward); settings: three of the five subjects; test 30 minutes after ingestion
Method: The test consisted of an examiner reading a series of numbers to the subject and the subject subsequently being asked to repeat said numbers backward. In all cases, the test was initiated 30 minutes after ingestion of the composition.

[3] = Weight loss in overweight subjects, daily administration over two weeks; settings: Formulation I (ten subjects) vs 180 mg caffeine capsules (five) vs placebo (five), FIG. 1
Excerpt: Weights were averaged and weight loss was charted every three days in all groups.

Cn1c(=O)c2c(ncn2C)n(C)c1=O [caffeine]
video game scores after consuming the composition (subjects [1]): higher scores after consuming the caffeine, compared to consuming the placebo
digits repeated backwards without error (subjects [2]): could not repeat this accomplishment
weight loss compared between groups [3]: not matched

From patent US20030165585A1, “Xanthine-containing compositions for oral administration and uses related thereto” (priority 2002, published 2003)
